# Data as given in patent US12570673B2, “c-Myc protein inhibitor, and preparation method therefor and use thereof” (SUZHOU KINTOR PHARMACEUTICALS, INC., priority 2019, dated 2026).
# Test system: HL60 cells
# Assay: Anti-cancer activity test, MTT, HL60 cells
# Type: cell-based
# Conditions: Homo sapiens, HL-60, culturing for 72 hours
# Method: Cell culture medium: Roswell medium RPMI-1640 (+L-glutamine) was added with 10% fetal bovine serum, with 100 units penicillin and 100 μg streptomycin per ml.
# Cell culture conditions: 5% CO2, 95% humidity, cultured at 37° C. constant temperature.
# 2. Cell Inoculation, Drugs Dosing and Culture.
# Logarithmic growth phase HL-60, human chronic myeloid leukemia cells (K562), human esophageal squamous cell carcinoma cells (KYSE510), human large cell lung cancer cells (H460) were inoculated into 96-well cell culture plates, 2×10^4 cells per well. Different concentrations of active compounds (dissolved in dimethyl sulfoxide (DMSO) stock solution) were added, so that the final concentration of DMSO was 0.2%, and the control group was DMSO. Each group was repeated three times.
# After culturing for 72 hours, 20 µL of thiazolyl blue (MTT) (5 mg/ml, ready for use, dissolved in 1×PBS for cell culture) was added to each well, and incubated at 37° C. for 3 hours.
# The 96-well cell culture plates were centrifuged at 1000 rpm for 10 minutes. The supernatant was discarded; 200 μL of DMSO was added to each well and the plate was shaken for 5 minutes.
# The absorbance of each well was detected at 570 nm wavelength with a microplate reader, and the IC50 of the compounds was calculated.
row,Compound,IC50
1,CC(C)C[C@H](NC(=O)[C@H](Cc1c[nH]c2ccccc12)NC(=O)C12CC3CC(CC(C3)C1)C2)B1O[C@@H]2C[C@@H]3C[C@@H](C3(C)C)[C@]2(C)O1 [Compound A26],500 to 2000 nM
2,CC(C)C[C@H](NC(=O)OCC1c2ccccc2-c2ccccc21)C(=O)N1CCC[C@H]1B(O)O [Compound A82],2000 to 10000 nM
3,CC(C)C[C@H](NC(=O)[C@H](CC(C)C)NC(=O)Cn1c2ccccc2c2cc(F)ccc21)B(O)O [Compound A98],500 to 2000 nM
4,CC(C)C[C@H](NC(=O)[C@H](CC(C)C)NC(=O)Cn1c2ccccc2c(=O)c2ccccc21)B1O[C@@H]2C[C@@H]3C[C@@H](C3(C)C)[C@]2(C)O1 [Compound A41],500 to 2000 nM
5,CC(C)C[C@H](NC(=O)[C@H](CC(C)C)NC(=O)Cn1c2ccccc2c2ccc(F)cc21)B(O)O [Compound A103],500 to 2000 nM
6,CC(C)C[C@H](NC(=O)[C@H](CC(C)C)NC(=O)Cn1c2ccc(Cl)cc2c2cc(Cl)ccc21)B(O)O [Compound A97],500 to 2000 nM
7,CC(C)C[C@H](NC(=O)[C@H](CC(C)C)NC(=O)Cn1c2ncccc2c2cccnc21)B(O)O [Compound A107],500 to 2000 nM
8,CC(C)C[C@H](NC(=O)[C@H](Cc1cn(C(=O)OC(C)(C)C)c2ccccc12)NC(=O)C12CC3CC(C1)C(=O)C(C3)C2)B1O[C@@H]2C[C@@H]3C[C@@H](C3(C)C)[C@]2(C)O1 [Compound A28],500 to 2000 nM
9,CC(C)C[C@H](NC(=O)[C@H](CC(C)C)NC(=O)Cn1c2ncccc2c2cccnc21)B1O[C@@H]2C[C@@H]3C[C@@H](C3(C)C)[C@]2(C)O1 [Compound A64],500 to 2000 nM
10,CC(C)C[C@H](NC(=O)[C@H](CC(C)C)NC(=O)Cn1c2ccccc2c2ccc(Br)cc21)B1O[C@@H]2C[C@@H]3C[C@@H](C3(C)C)[C@]2(C)O1 [Compound A62],100 to 500 nM
11,CC(C)C[C@H](NC(=O)[C@H](CC(C)C)NC(=O)Cn1c2ccc(Cl)cc2c2cc(Cl)ccc21)B1O[C@@H]2C[C@@H]3C[C@@H](C3(C)C)[C@]2(C)O1 [Compound A59],500 to 2000 nM
12,CC(C)C[C@H](NC(=O)[C@H](CC(C)C)NC(=O)Cn1c2ccccc2c2ccc(C#N)cc21)B1O[C@@H]2C[C@@H]3C[C@@H](C3(C)C)[C@]2(C)O1 [Compound A61],100 to 500 nM
13,CC(C)C[C@H](NC(=O)[C@H](CC(N)=O)NC(=O)CC1c2ccccc2-c2ccccc21)B1O[C@@H]2C[C@@H]3C[C@@H](C3(C)C)[C@]2(C)O1 [Compound A38],100 to 500 nM
14,CC(C)C[C@H](NC(=O)[C@H](CC(C)C)N(C)C(=O)OCC1c2ccccc2-c2ccccc21)B1O[C@@H]2C[C@@H]3C[C@@H](C3(C)C)[C@]2(C)O1 [Compound A50],2000 to 10000 nM
15,CC(C)C[C@H](NC(=O)[C@H](CC(C)C)NC(=O)Cn1c2ccccc2c2cccnc21)B1O[C@@H]2C[C@@H]3C[C@@H](C3(C)C)[C@]2(C)O1 [Compound A56],500 to 2000 nM
16,CC(C)C[C@H](NC(=O)[C@H](CC(C)C)NC(=O)Cn1c2ccccc2c2ccncc21)B1O[C@@H]2C[C@@H]3C[C@@H](C3(C)C)[C@]2(C)O1 [Compound A39],500 to 2000 nM
17,CC(C)C[C@H](NC(=O)[C@H](Cc1c[nH]c2ccccc12)NC(=O)c1nc2ccccc2s1)B1O[C@@H]2C[C@@H]3C[C@@H](C3(C)C)[C@]2(C)O1 [Compound A34],100 to 500 nM
18,CC(C)C[C@H](NC(=O)[C@H](CC(C)C)NC(=O)Cn1c2ccccc2c2ccc(OCc3ccccc3)cc21)B(O)O [Compound A105],100 to 500 nM
19,CC(C)C[C@H](NC(=O)[C@H](Cc1c[nH]c2ccccc12)NCc1ccccc1)B1O[C@@H]2C[C@@H]3C[C@@H](C3(C)C)[C@]2(C)O1 [Compound A46],100 to 500 nM
20,CC(C)C[C@H](NC(=O)[C@H](CC(C)C)NC(=O)Cn1c2ccccc2c2ncccc21)B1O[C@@H]2C[C@@H]3C[C@@H](C3(C)C)[C@]2(C)O1 [Compound A63],100 to 500 nM
21,CC(C)C[C@H](NC(=O)[C@H](C)NC(=O)c1ccc2c(c1)C(=O)N(C1CCC(=O)NC1=O)C2=O)B(O)O (some centres unmarked) [Compound A90],2000 to 10000 nM

# Further lines, results first:
row,IC50,Compound
1,< 100 nM,COC(=O)C[C@H](NC(=O)OCC1c2ccccc2-c2ccccc21)C(=O)N[C@@H](CC(C)C)B1O[C@@H]2C[C@@H]3C[C@@H](C3(C)C)[C@]2(C)O1 [Compound A16]
2,< 100 nM,CC(C)C[C@H](NC(=O)[C@H](C)NC(=O)OCC1c2ccccc2-c2ccccc21)B(O)O [Compound A86]
3,< 100 nM,CNC(=O)C[C@H](NC(=O)CC1c2ccccc2-c2ccccc21)C(=O)N[C@@H](CC(C)C)B1O[C@@H]2C[C@@H]3C[C@@H](C3(C)C)[C@]2(C)O1 [Compound A48]
4,< 100 nM,CC(C)C[C@H](NC(=O)CNC(=O)OCC1c2ccccc2-c2ccccc21)B1O[C@@H]2C[C@@H]3C[C@@H](C3(C)C)[C@]2(C)O1 [Compound A51]
5,100 to 500 nM,CC(C)C[C@H](NC(=O)[C@H](CC(C)C)NC(=O)Cn1c2ccccc2c2ccc(Br)cc21)B(O)O [Compound A102]
6,< 100 nM,CC(C)C[C@H](NC(=O)[C@H](Cc1c[nH]c2ccccc12)NC(=O)c1ccc2ncccc2c1)B(O)O [Compound A74]
7,100 to 500 nM,CC(C)C[C@H](NC(=O)[C@H](CC(N)=O)NC(=O)CC1c2ccccc2-c2ccccc21)B(O)O [Compound A81]
8,< 100 nM,CC(C)C[C@H](NC(=O)[C@H](CC(C)C)NC(=O)NC1c2ccccc2-c2ccccc21)B1O[C@@H]2C[C@@H]3C[C@@H](C3(C)C)[C@]2(C)O1 [Compound A42]
9,< 100 nM,CC(C)C[C@H](NC(=O)[C@H](C)NC(=O)OCC1c2ccccc2-c2ccccc21)B1O[C@@H]2C[C@@H]3C[C@@H](C3(C)C)[C@]2(C)O1 [Compound A12]
10,< 100 nM,CC(C)C[C@H](NC(=O)[C@H](CCc1ccccc1)NC(=O)OCC1c2ccccc2-c2ccccc21)B1O[C@@H]2C[C@@H]3C[C@@H](C3(C)C)[C@]2(C)O1 [Compound A17]
11,< 100 nM,CC(C)C[C@H](NC(=O)[C@H](Cc1c[nH]c2ccccc12)NC(=O)c1ccc2cc(N)ccc2c1)B(O)O [Compound A88]
12,< 100 nM,CC(C)C[C@H](NC(=O)[C@H](Cc1c[nH]c2ccccc12)NC(=O)CC1CCCCC1)B1O[C@@H]2C[C@@H]3C[C@@H](C3(C)C)[C@]2(C)O1 [Compound A29]
13,100 to 500 nM,CC(C)C[C@H](NC(=O)[C@H](CC(C)C)NC(=O)Cn1c2ccccc2c2ccc(C#N)cc21)B(O)O [Compound A101]
14,< 100 nM,CC(C)C[C@H](NC(=O)[C@H](CC(C)C)NC(=O)OCC1c2ccccc2-c2ccccc21)B(O)O [Compound A65]
15,< 100 nM,CC(C)C[C@H](NC(=O)[C@H](Cc1c[nH]c2ccccc12)NC(=O)CC1CCCC1)B1O[C@@H]2C[C@@H]3C[C@@H](C3(C)C)[C@]2(C)O1 [Compound A30]
16,< 100 nM,CC(C)C[C@H](NC(=O)[C@H](Cc1c[nH]c2ccccc12)NC(=O)CC1CC1)B(O)O [Compound A70]
17,< 100 nM,CC(C)C[C@H](NC(=O)[C@H](CC(C)C)NC(=O)NCC1c2ccccc2-c2ccccc21)B1O[C@@H]2C[C@@H]3C[C@@H](C3(C)C)[C@]2(C)O1 [Compound A43]
18,< 100 nM,CC(C)C[C@H](NC(=O)[C@H](CC(=O)NC(c1ccccc1)(c1ccccc1)c1ccccc1)NC(=O)OCc1ccccc1)B1O[C@@H]2C[C@@H]3C[C@@H](C3(C)C)[C@]2(C)O1 [Compound A20]
19,< 100 nM,COc1ccc2cc(C(=O)N[C@@H](Cc3c[nH]c4ccccc34)C(=O)N[C@@H](CC(C)C)B(O)O)ccc2c1 [Compound A87]
20,< 100 nM,CC(C)C[C@H](NC(=O)[C@H](Cc1c[nH]c2ccccc12)NC(=O)CC12CC3CC(CC(C3)C1)C2)B1O[C@@H]2C[C@@H]3C[C@@H](C3(C)C)[C@]2(C)O1 [Compound A25]
21,< 100 nM,CC(C)C[C@H](NC(=O)[C@H](Cc1cn(C(=O)OC(C)(C)C)c2ccccc12)NC(=O)OCC1c2ccccc2-c2ccccc21)B1O[C@@H]2C[C@@H]3C[C@@H](C3(C)C)[C@]2(C)O1 [Compound A8]
22,< 100 nM,CC(C)C[C@H](NC(=O)[C@H](Cc1c[nH]c2ccccc12)NS(=O)(=O)Cc1ccccc1)B(O)O [Compound A71]
23,< 100 nM,CC(C)C[C@H](NC(=O)[C@H](CC(=O)NC(c1ccccc1)(c1ccccc1)c1ccccc1)NC(=O)OCC1c2ccccc2-c2ccccc21)B1O[C@@H]2C[C@@H]3C[C@@H](C3(C)C)[C@]2(C)O1 [Compound A1]
24,< 100 nM,CC(C)C[C@H](NC(=O)[C@H](CC(C)C)NC(=O)CC1c2ccccc2-c2ccccc21)B1O[C@@H]2C[C@@H]3C[C@@H](C3(C)C)[C@]2(C)O1 [Compound A24]
25,< 100 nM,CC(C)C[C@H](NC(=O)[C@H](Cc1c[nH]c2ccccc12)NC(=O)OC1CCCC1)B1O[C@@H]2C[C@@H]3C[C@@H](C3(C)C)[C@]2(C)O1 [Compound A45]
26,< 100 nM,CC(C)C[C@H](NC(=O)[C@H](Cc1c[nH]c2ccccc12)NC(=O)c1nc2ccccc2s1)B(O)O [Compound A73]
27,< 100 nM,CC(C)C[C@H](NC(=O)[C@H](Cc1c[nH]c2ccccc12)NC(=O)c1cnc2ccccc2c1)B1O[C@@H]2C[C@@H]3C[C@@H](C3(C)C)[C@]2(C)O1 [Compound A36]
28,< 100 nM,CC(C)C[C@H](NC(=O)[C@H](Cc1c[nH]c2ccccc12)NC(=O)OCC1c2ccccc2-c2ccccc21)B1O[C@@H]2C[C@@H]3C[C@@H](C3(C)C)[C@]2(C)O1 [Compound A18]
29,< 100 nM,CC(C)C[C@H](NC(=O)[C@H](Cc1c[nH]c2ccccc12)NS(=O)(=O)Cc1ccccc1)B1O[C@@H]2C[C@@H]3C[C@@H](C3(C)C)[C@]2(C)O1 [Compound A32]
